From patent US12194039B2, “Methods of treating heart failure by administering omecamtiv mecarbil” (Cytokinetics, Inc., priority 2020, dated 2025)
Like-named read-outs stand apart in the source and are kept apart here.

Test system: patients with heart failure and reduced ejection fraction
Assay type: in vivo, human
Details: for Creatinine, change from baseline, mean / Heart rate, change from baseline, mean / Potassium, change from baseline, mean / Systolic blood pressure, change from baseline, mean / Troponin, change from baseline, median: N = 4110
Method: All eligible participants were randomized 1:1 to oral administration of either placebo or omecamtiv mecarbil (pharmacokinetic-guided dosing: 25, 37.5 or 50 mg) twice daily. Pre-dose plasma concentrations of omecamtiv mecarbil were measured at weeks 2 and 6 with respective dose adjustments on weeks 4 and 8. The patient and investigator were blinded to the plasma concentrations and dispensed dose. The full schedule of assessments is provided in the protocol available at NEJM.org. Study drug was temporarily withheld if the participant experienced clinical signs or symptoms consistent with acute myocardial infarction or ischemia.
Other outcomes of interest included the effects of omecamtiv mecarbil on vital signs and selected laboratory values (Table 3).
Continuous variables were summarized as means±standard deviations (SD) or medians and first and third quartiles (Q1, Q3), as appropriate. Categorical variables were summarized as counts and percentages. […] The change from baseline on NT-proBNP analysis included all participants who underwent randomization. The difference column is the exponentiated change from baseline on the log scale using a mixed model containing the log baseline value, region, baseline eGFR, scheduled visit, treatment group and interaction of treatment with scheduled visit.

COC(=O)N1CCN(Cc2cccc(NC(=O)Nc3ccc(C)nc3)c2F)CC1 [omecamtiv mecarbil] was tested, and the “Creatinine, change from baseline, difference vs placebo” value (Week 24) was 0.007 mg/dL, the “Heart rate, change from baseline, difference vs placebo” value (Week 24) was −1.61 bpm and the “Potassium, change from baseline, difference vs placebo” value (Week 24) was 0.002 mmol/L. For the same molecule, the “Systolic blood pressure, change from baseline, difference vs placebo” value (Week 24) was −0.13 mmHg, the “Creatinine, change from baseline, mean” value (Week 24) was 0.03 mg/dL and the “Heart rate, change from baseline, mean” value (Week 24) was −2.1 bpm. The “Potassium, change from baseline, mean” value (Week 24) was -0.01 mmol/L, the “Systolic blood pressure, change from baseline, mean” value (Week 24) was 1.4 mmHg and the “Troponin, change from baseline, median” value (Week 24) was 0.004 ng/mL. For the same molecule, the “NT-proBNP, change from baseline, median” value (Week 24, all randomized participants) was -251 pg/mL, the “Troponin, change from baseline, difference vs placebo” value (Week 24, lower limit of quantification 0.010 ng/mL) was 0.004 ng/mL and the “NT-proBNP, exponentiated change from baseline on the log scale, omecamtiv mecarbil vs placebo” value (Week 24, mixed model) was 0.90. The “NT-proBNP concentrations compared to placebo” value (Week 24, result in words) was “significantly decreased”, the “Creatinine, change from baseline, difference vs placebo” value (Week 48) was 0.010 mg/dL and the “Heart rate, change from baseline, difference vs placebo” value (Week 48) was −1.75 bpm. For the same molecule, the “Potassium, change from baseline, difference vs placebo” value (Week 48) was -0.007 mmol/L, the “Systolic blood pressure, change from baseline, difference vs placebo” value (Week 48) was 0.16 mmHg and the “Troponin, change from baseline, difference vs placebo” value (Week 48) was 0.002 ng/mL. The “Creatinine, change from baseline, mean” value (Week 48) was 0.06 mg/dL, the “Heart rate, change from baseline, mean” value (Week 48) was −2.0 bpm and the “Potassium, change from baseline, mean” value (Week 48) was -0.03 mmol/L. The “Systolic blood pressure, change from baseline, mean” value (Week 48) was 2.0 mmHg, the “Troponin, change from baseline, median” value (Week 48) was 0.002 ng/mL and the “Heart rate compared to placebo” value (at 24 and 48 weeks, result in words) was “small but significant decrease”. For the same molecule, the “Change in systolic blood pressure, omecamtiv mecarbil vs placebo” value (at 24 or 48 weeks, result in words) was “no significant difference” and the “Potassium or creatinine concentrations compared to placebo” value (during the course of the trial, result in words) was “no change”.
